Measurements published in paper PMC7470102, “Synthesis, anticancer evaluation and molecular docking studies of new benzimidazole- 1,3,4-oxadiazole derivatives as human topoisomerase types I poison” (Journal of Enzyme Inhibition and Medicinal Chemistry, 2020).

How the values were obtained:
[1] = test system: C6 cell line; experiment: Flow cytometric analysis (Annexin V/PI), C6; type: cell-based, rat; conditions: at IC50 concentrations
Experimental: Death pathway of the carcinogenic cell lines was detected by Annexin V-FITC Apoptosis Detection Kit (BD, Pharmingen) as reported previously described. […] FCS Express software was used to display the percent of normal and apoptotic cells at different stages. […] The experiments were carried out in triplicates.
Annexin V/PI staining on tested cancer cells treated with the active compounds was performed to investigate induction of apoptosis. […] According to the MTT assay, compound 5n for A549 cell line; compounds 5a, 5d, 5e, 5o for MCF-7 cell line; compound 5k for C6 cell line; compound 5a for HepG2 cell line; compounds 5b, 5l and 5n for HeLa cell line were selected for the flow cytometric analysis. Furthermore, flow cytometry studies were performed for reference drug doxorubicin. Flow cytometric analysis diagrams of tested compounds and doxorubicin at IC50/2, IC50, and 2xIC50 concentrations on cancer cells were presented in Figures 7–11.

[2] = test system: A549 (lung carcinoma cell line); experiment: MTT cytotoxicity assay, A549; type: cell-based; conditions: Homo sapiens, A549, MTT assay, read-out: IC50 against A549
Experimental: (§1) The anticancer activity of compounds 5a–5o were screened according to the MTT assays. The MTT assays were performed as previously described[32]^,[33]. Anticancer activity of final compounds was assessed against five different cancer cell lines A549 (lung carcinoma cell line), HeLa (cervical cell line), MCF-7 (human breast adenocarcinoma cell line), HepG2 (human liver carcinoma cell line) and C6 (rat glioma cell line) cell lines as well as NIH3T3 (mouse embryo fibroblast cell line). Doxorubicin and Hoechst 33342 were used as the reference drugs in the MTT assays.
(§2) The benzimidazole-1,3,4-oxadiazole derivatives (5a-5o) were tested their cytotoxic effects in vitro using five cancer cell line A549 (lung carcinoma cell line), HeLa (cervical cell line), MCF-7 (human breast adenocarcinoma cell line), HepG2 (human liver carcinoma cell line) and C6 (rat glioma cell line) cell lines as well as NIH3T3 (mouse embryo fibroblast cell line). Doxorubicin and Hoechst 33342 were used for this study as a reference drugs.

[3] = test system: MCF-7 (human breast adenocarcinoma cell line); experiment: MTT cytotoxicity assay, MCF-7; type: cell-based; conditions: Homo sapiens, MCF7, MCF-7 cell line, read-out: IC50 against MCF-7
Experimental: as §1, §2

[4] = test system: HepG2 (human liver carcinoma cell line); experiment: MTT cytotoxicity assay, HepG2; type: cell-based; conditions: Homo sapiens, read-out: IC50 against HepG2
Experimental: as §1, §2

[5] = molecular target: T1, Topoisomerase I (Homo sapiens, UniProt P11387); experiment: DNA topoisomerase I assay (relaxation of supercoiled plasmid DNA, agarose gel); type: biochemical; conditions: agarose gel electrophoresis, camptothecin positive control, Figure 12
T1 construct: purchased TopoGen TG1018-2
T1 sequence (P11387 1-765): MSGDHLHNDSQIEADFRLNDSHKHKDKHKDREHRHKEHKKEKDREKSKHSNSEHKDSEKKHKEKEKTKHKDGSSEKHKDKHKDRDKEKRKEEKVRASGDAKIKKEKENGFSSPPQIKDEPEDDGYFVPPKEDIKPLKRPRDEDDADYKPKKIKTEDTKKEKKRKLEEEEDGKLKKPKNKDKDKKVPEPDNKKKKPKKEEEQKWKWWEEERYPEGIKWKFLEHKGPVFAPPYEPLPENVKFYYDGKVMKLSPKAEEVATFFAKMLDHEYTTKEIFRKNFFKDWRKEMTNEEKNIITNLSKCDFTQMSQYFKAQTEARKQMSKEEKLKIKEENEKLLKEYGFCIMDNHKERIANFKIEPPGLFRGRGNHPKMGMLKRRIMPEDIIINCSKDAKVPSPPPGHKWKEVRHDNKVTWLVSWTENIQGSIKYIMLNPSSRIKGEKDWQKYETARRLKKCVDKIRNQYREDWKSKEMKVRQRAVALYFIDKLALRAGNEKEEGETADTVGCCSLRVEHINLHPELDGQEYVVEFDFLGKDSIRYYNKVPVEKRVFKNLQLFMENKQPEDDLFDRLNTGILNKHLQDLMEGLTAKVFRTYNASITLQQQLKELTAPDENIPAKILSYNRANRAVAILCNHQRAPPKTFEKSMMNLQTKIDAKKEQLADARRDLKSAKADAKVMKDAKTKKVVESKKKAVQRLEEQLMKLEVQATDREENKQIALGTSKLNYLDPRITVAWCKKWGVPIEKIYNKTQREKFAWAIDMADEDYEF
Experimental: The topoisomerase I inhibition activities of final compounds were measured as relaxation of supercoiled plasmid DNA using agarose gel electrophoresis and camptothecin was used as a positive control. The assay was carried out in a final volume of 20 µl reaction volume containing 2 µl of 10xTGS Buffer, 6 µl water, 2 µl supercoiled plasmid DNA, 2 µl test compound, 2 µl of Top1, 2 ul 10% SDS, 2 µl proteinase K, 2 µl DNA loading dye. After incubation of reaction mixtures at 37 °C for 30 min, electrophoresis was done on a 1% agarose gel at a potential 50 V for 75 min using 1xTAE buffer.
To determine whether the DNA intercalation properties of compounds 5a, 5b, 5d, 5e, 5k, 5l, 5n and 5o might result in Topo I inhibition, agarose gel electrophores is assay was performed to evaluate the Topo I inhibitory activity of them via agarose-gel electrophoresis and CPT was used as the positive control. The TopoGEN Topoisomerase I Drug Screening Kit were optimised and implemented to accomplish this goal.
In a previous studies, it was said that the compounds poisoning topoisomerase caused the formation of nick bands in such gel appearances, while the formation of Supercoiled bands was said to be caused by catalytic inhibitors that bound to either DNA or enzyme[40]^,[41].

[6] = test system: NIH3T3 (mouse embryo fibroblast cell line); experiment: MTT cytotoxicity assay, NIH3T3 healthy cells; type: cell-based; conditions: Mus musculus, read-out: IC50 against NIH3T3
Experimental: The anticancer activity of compounds 5a–5o were screened according to the MTT assays. The MTT assays were performed as previously described[32]^,[33]. Anticancer activity of final compounds was assessed against five different cancer cell lines A549 (lung carcinoma cell line), HeLa (cervical cell line), MCF-7 (human breast adenocarcinoma cell line), HepG2 (human liver carcinoma cell line) and C6 (rat glioma cell line) cell lines as well as NIH3T3 (mouse embryo fibroblast cell line). Doxorubicin and Hoechst 33342 were used as the reference drugs in the MTT assays. It is crucial that an anticancer agent affects the cancer cell line but having minimal or no side-effect on healthy cells. For this purpose, the cytotoxic effects of the active compounds on the NIH3T3 cell line were investigated (Table 2).

[7] = test system: HeLa (cervical cell line); experiment: MTT cytotoxicity assay, HeLa; type: cell-based; conditions: Homo sapiens, read-out: IC50 against HeLa
Experimental: as §1, §2

[8] = test system: C6 cells; experiment: DNA synthesis inhibition assay (BrdU), C6; type: cell-based, rat; conditions: lower dose (IC50/2), 48 h vs 24 h incubation
Experimental: The BrdU cell proliferation method was performed to analyse the effects of the active compounds on proliferation of cancer cells. Cancer cells were seeded into the 96-well plates at a density of 1 × 10^4 cells. Compounds were added into the each well at three different concentrations (IC50/2, IC50 and 2xIC50) and the plates were incubated for 24 h. At the end of the incubation period, BrdU solution was added and cells were reincubated for 2 h at 37 °C. Anti-BrdU-POD ([…]) was added and the mixture was incubated for 90 min. Microplates were washed with PBS for three times. After adding substrate solution, the mixture was incubated for 15 min. OD of the wells were determined at 492 nm. Proliferation of control cells was assessed as 100% and growth inhibition % of cells, treated with test compounds and […] were calculated.
According to the MTT assay, compound 5n for A549 cell line; compounds 5a, 5d, 5e, 5o for MCF-7 cell line; compound 5k for C6 cell line; compound 5a for HepG2 cell line; compounds 5b, 5l and 5n for HeLa cell line were selected for the DNA synthesis inhibition assay. A549, C6, MCF-7, HepG2 and HeLa cells were incubated with three different concentrations (IC50/2, IC50, and […]) of the compounds for 24 and 48 h time periods. […] Doxorubicin was used as positive control.

[9] = test system: C6 (rat glioma cell line); experiment: MTT cytotoxicity assay, C6; type: cell-based; conditions: Rattus norvegicus, read-out: IC50 against C6
Experimental: as §1, §2

Topo I inhibition activity [5]: potent topo I inhibition activity
Structure (SMILES): CCOc1ccc(-c2nc3ccc(-c4nnc(SCC(=O)N5CCN(C)CC5)o4)cc3[nH]2)cc1 [5k, 2-((5-(2-(4-Ethoxyphenyl)-1H-benzo[d]imidazol-6-yl)-1,3,4-oxadiazol-2-yl)thio)-1–(4-methyl-piperazin-1-yl)-ethane-1-on]
percentage of apoptotic cells [1]: 12.3% | IC50 [2]: 22.3 ± 1.05 µM | IC50 [3]: 38.7 ± 1.88 µM | IC50 [4]: ≥ 100 µM | IC50 [6]: 74.6 ± 3.63 µM | IC50 [7]: 11.2 ± 0.467 µM | DNA synthesis inhibition at 48 h relative to 24 h [8]: eight times higher | IC50 [9]: 3.2 ± 0.152 µM
